The source of these data is patent US6566081B1, “Methods of identifying a compound which modulates the non-transcriptional non-map-kinase induced effects of steroid hormones” (The Brigham and Women's Hospital, Inc., priority 1999, dated 2003).

The subject of series [1] is ERK 1 and 2. The series can be described thus: Immunoblotting of ERK 1/2 phosphorylation. Format: cell-based, human. To be noted: E2 10 nM, from 2 minutes. Here is the method:
After the different treatments, serum-starved endothelial cells were rinsed once with ice-cold PBS before addition of the lysis buffer (100 mM Tris-HCl, pH 6.8, 4% SDS, 20% glycerol, 1 mM sodium orthovanadate, 1 mM NaF, and 1 mM phenylmethylsulfonylfluoride) to the dishes on an ice tray. The cell lysates were scraped, boiled, and centrifuged for 2 min at 13000 rpm. Total cell lysates (40 μg of protein) and low range molecular weight markers (BIO-RAD, Hercules, Calif.) were separated by SDS-polyacrylamide gel electrophoresis (12% running, 4% stacking), electrophoretically transferred to polyvinylidene fluoride membranes (Immobilon P, 0.45 μm pore size) and incubated overnight at 4° C. with blocking solution (5% skim milk in TBS—0.1% Tween 20). Affinity-purified rabbit antibodies (0.4 μg of IgG/ml) vs. Akt, (Ser 473) phospho-Akt or (Thr 308) phospho-Akt (New England BioLabs, Beverly, Mass.), Erk1/2, (Tyr 204) phospho-Erk-1/-2 (Calbiochem, San Diego, Calif.) were incubated with the membranes overnight at 4° C. in TBS—0.1% Tween 20 containing 5% BSA. The blots were washed three times with TBS—0.1% Tween 20 and then treated with donkey anti-rabbit antibody (1:4000 dilution) coupled to horseradish peroxidase. Immunodetection was accomplished using the enhanced chemoluminescence kit (ECL Kit, Amersham Corp.).

The target in series [2] is T1, ER-α / PI3-kinase p85α (Homo sapiens, UniProt P03372).
T1 construct: endogenous in cells; host or cells: human endothelial cells (HSVEC), anti-ERα immunoprecipitate
T1 sequence (P03372 1-595): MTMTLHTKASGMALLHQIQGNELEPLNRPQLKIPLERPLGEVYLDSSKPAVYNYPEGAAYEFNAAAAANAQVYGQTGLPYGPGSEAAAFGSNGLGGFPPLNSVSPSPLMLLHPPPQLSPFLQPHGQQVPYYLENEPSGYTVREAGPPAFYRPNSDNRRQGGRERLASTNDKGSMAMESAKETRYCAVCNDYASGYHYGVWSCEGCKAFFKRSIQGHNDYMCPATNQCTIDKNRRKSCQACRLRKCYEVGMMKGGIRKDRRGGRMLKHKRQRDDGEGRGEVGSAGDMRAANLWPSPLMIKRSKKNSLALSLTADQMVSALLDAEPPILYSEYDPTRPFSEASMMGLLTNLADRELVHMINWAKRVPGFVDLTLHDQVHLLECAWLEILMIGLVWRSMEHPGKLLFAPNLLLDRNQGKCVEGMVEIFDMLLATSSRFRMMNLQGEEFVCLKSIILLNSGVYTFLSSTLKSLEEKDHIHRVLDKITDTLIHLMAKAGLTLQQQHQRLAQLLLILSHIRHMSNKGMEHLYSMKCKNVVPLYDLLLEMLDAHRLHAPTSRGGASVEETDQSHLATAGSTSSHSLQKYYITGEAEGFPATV
The series can be described thus: ER-α immunoprecipitation: co-precipitated p85α and associated PI3-kinase activity. To be noted: ER-α immunoprecipitate. Format: cell-based.

For the substance 17β-estradiol [E2], the “phosphorylation of ERK 1 and 2” value in series [1] is listed as “increased phosphorylation”.

In the case of “insulin: known activator of the PI3-kinase/Akt pathway”, the “stimulation of ER-α-associated PI3-kinase activity” value in series [2] was “did not increase or augment”.
